Experimental data published in patent US9695193B2, “Inhibitors of Plasmodium falciparum equilibrative nucleoside transporter type I as anti-parasitic compounds” (The Trustees of Columbia University in the City of New York, priority 2013, dated 2017).

Molecular target: T1, PfENT1 (Plasmodium falciparum, UniProt Q8IDM6)
T1 construct: expressed in transfected cells; host or cells: fui1Δ yeast (Saccharomyces cerevisiae), co-expressing GFP
Type: cell-based
Details: primary HTS, compounds at 10 μM, 125 μM 5-FUrd
Method: A yeast-based high throughput screening (HTS) assay was used to identify compounds that inhibit PfENT1. The compounds described in this application were identified by screening four commercially available, chemical compound libraries obtained from Dr. Donald Landry's laboratory (Department of Medicine, Columbia University). These libraries contain approximately 80,000 unique chemical entities.
In the primary screen the compounds were tested at a concentration of 10 μM. Hits were identified by the growth of fui1Δ yeast expressing PfENT1 and Green Fluorescent Protein (GFP) in the presence of the cytotoxic nucleoside 5-fluorouridine (5-FUrd). 5-FUrd is transported by PfENT1. PfENT1 expressing fui1Δ yeast will only grow in the presence of 125 μM 5-FUrd if a PfENT1 inhibitor blocks the uptake of 5-FUrd into the yeast. Significant yeast growth in the HTS in 384 well plates was determined by two criteria: 1) turbidity as determined by the optical density at 620 nm (OD620) and 2) GFP fluorescence intensity. […] Hits had to be positive by both criteria.

T1 sequence (Q8IDM6 whole entry): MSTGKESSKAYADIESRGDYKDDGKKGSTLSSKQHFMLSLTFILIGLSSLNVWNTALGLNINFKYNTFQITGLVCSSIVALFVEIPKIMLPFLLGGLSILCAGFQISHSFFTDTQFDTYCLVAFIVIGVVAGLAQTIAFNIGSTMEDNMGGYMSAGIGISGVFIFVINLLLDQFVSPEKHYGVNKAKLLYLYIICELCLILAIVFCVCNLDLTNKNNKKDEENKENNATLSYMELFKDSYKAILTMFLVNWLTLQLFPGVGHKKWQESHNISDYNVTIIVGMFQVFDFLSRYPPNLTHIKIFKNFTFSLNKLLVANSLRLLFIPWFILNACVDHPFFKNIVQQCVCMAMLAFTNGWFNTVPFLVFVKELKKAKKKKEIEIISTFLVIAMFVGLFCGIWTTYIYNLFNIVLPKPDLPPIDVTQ

Row | Structure (SMILES) | Avg Normalized % maximal activity [%]
1 | O=C(COc1ccccc1Cl)Nc1ccc(C(=O)N2CCCCC2)cc1 [compound 8, 2-(2-chlorophenoxy)-N-[4-(1-piperidinylcarbonyl)phenyl]acetamide] | 54.23
2 | COc1cccc(C(=O)Nc2cccc(-c3nnc(-c4ccco4)o3)c2)c1 [compound 9, N-{3-[5-(2-furyl)-1,3,4-oxadiazol-2-yl]phenyl}-3-methoxybenzamide] | 54.12
3 | Cc1nc(NC(=O)c2sc3ccccc3c2Cl)sc1C(=O)N(C)C [compound 10, 2-{[(3-chloro-1-benzothien-2-yl)carbonyl]amino}-N,N,4-trimethyl-1,3-thiazole-5-carboxamide] | 45.82
4 | O=C(Nc1cccc(-c2nc3ncccc3o2)c1)c1ccco1 [compound 11, N-(3-[1,3]oxazolo[4,5-b]pyridin-2-ylphenyl)-2-furamide] | 32.85
5 | Cc1cc(=O)oc2cc(OCc3nnc(-c4ccccc4)o3)ccc12 [compound 12, 4-methyl-7-[(5-phenyl-1,3,4-oxadiazol-2-yl)methoxy]-2H-chromen-2-one] | 31.72
6 | Cc1ccnc(NC(=O)c2ccc(NC(=O)c3ccco3)cc2)c1 [compound 14, N-(4-{[(4-methyl-2-pyridinyl)amino]carbonyl}phenyl)-2-furamide] | 24.47
7 | COc1ccc(-c2cnc3ccccc3n2)cc1NC(=O)c1ccncc1 [compound 15] | 24.18
8 | COc1ccc(C(=O)Nc2cccc(-c3nc4ncccc4o3)c2)cc1 [compound 16, 4-methoxy-N-(3-[1,3]oxazolo [4,5-b]pyridin-2-ylphenyl)benzamide] | 23.87
9 | CCN(CC)C(=O)COc1ccc2c(c1)oc(=O)c1cc(OC)ccc12 [compound 17, N,N-diethyl-2-[(8-methoxy-6-oxo-6H-benzo [c]chromen-3-yl)oxy]acetamide] | 22.15
10 | O=c1[nH]c(/C=C/c2ccccc2Cl)nc2ccccc12 [compound 18, 2-[2-(2-chlorophenyl)vinyl]-4(3H)-quinazolinone] | 21.82
11 | O=C(Nc1cccc(-c2cn3ccsc3n2)c1)c1ccccc1F [compound 20, 2-fluoro-N-(3-imidazo[2,1-b][1,3]thiazol-6-ylphenyl)benzamide] | 19.78
12 | CC1CCc2sc3ncnc(N4CCN(C(=O)c5ccco5)CC4)c3c2C1 (stereo not drawn) [compound 21, 4-[4-(2-furoyl)-1-piperazinyl]-6-methyl-5,6,7,8-tetrahydro[1] benzothieno[2,3-d]pyrimidine] | 17.70
13 | Cc1nc(NC(=O)c2oc3ccccc3c2C)sc1C(=O)N(C)C [compound 22, N,N,4-trimethyl-2-{[(3-methyl-1-benzofuran-2-yl)carbonyl]amino}-1,3-thiazole-5-carboxamide] | 17.36
14 | Fc1ccc(C2CC(c3ccco3)n3ncnc3N2)cc1 (stereo not drawn) [compound 23, 5-(4-fluorophenyl)-7-(2-furyl)-4,5,6,7-tetrahydro[1,2,4] triazolo[1,5-a]pyrimidine] | 16.77
15 | O=C(Nc1nc2c(s1)C(=O)CCC2)c1ccccc1Cl [compound 24, 2-chloro-N-(7-oxo-4,5,6,7-tetrahydro-1,3-benzothiazol-2-yl)benzamide] | 16.16
16 | CCOc1ccc(-c2noc(CCCC(=O)N3CCCCC3)n2)cc1OC [compound 25, 1-{4-[3-(4-ethoxy-3-methoxyphenyl)-1,2,4-oxadiazol-5-yl]butanoyl} piperidine] | 15.69
17 | O=C(Nc1ccc(-c2nnc(-c3ccco3)o2)cc1)C1CCCO1 (stereo not drawn) [compound 26, N-{4-[5-(2-furyl)-1,3,4-oxadiazol-2-yl]phenyl}tetrahydro-2-furancarboxamide] | 15.22
18 | COc1ccc(-c2nc3ccccc3o2)cc1NC(=O)c1cccnc1 [compound 27, N-[5-(1,3-benzoxazol-2-yl)-2-methoxyphenyl] nicotinamide] | 14.03
